Test results from patent US10040804B2, “Compounds targeting proteins, compositions, methods, and uses thereof” (BioTheryX, Inc., priority 2016, dated 2018).

Legend:
GSPT1 = target: T1, GSPT1 (Homo sapiens, UniProt P15170); experiment: GSPT1 protein levels by Western Blot analysis; assay type: cell-based; conditions: DMSO = 100.00; for remaining activity at 0.1 µM: 100 nM compound concentration; for remaining activity at 1 µM: 1 μM compound concentration
T1 construct: Whole cell extracts were prepared using RIPA buffer according to manufacturer's protocol (Pierce); endogenous in cells
Protocol: Cells were lysed using RIPA Buffer (Pierce) and a Western Blot analysis was performed using anti-GSPT1 and anti-β-actin antibodies. FIG. 11B is a graph showing the expression levels of GSPT1 protein in Molm-13 (AML) cells. Protein expression levels were measured using the LiCor Odyssey instrumentation and methods.
Western Blot Protocol: Cell lines were grown in RPMI 1640 supplemented with streptomycin, penicillin and 10% fetal bovine serum.
Cells were cultured at approximately 10^6 cells per mL and incubated in DMSO or each of the indicated compounds for 6-8 h. Whole cell extracts were prepared using RIPA buffer according to manufacturer's protocol (Pierce). Briefly, 2×10^6 cells were washed once in PBS, the cell pellets were resuspended in RIPA buffer and allowed to incubate for 15 minutes on ice. Cells debris was removed by centrifugation and the cleared whole cell lysates were transferred to new tubes for further analysis.
For Western blot analysis, whole cell protein extracts were separated on 4-12% SDS-polyacrylamide gels, transferred to nitrocellulose, and probed with the indicated primary antibodies. Membranes were subsequently washed and probed with the appropriate IRDye secondary antibodies (LI-COR). The signal was detected using the Odyssey Imaging System (LI-COR).
GSPT1: Rabbit anti-GSPT1 was obtained from Abcam, ab126090 (Cambridge, Eng.)

IL-1β = IL-1β expression in LPS stimulated PBMCs (Meso Scale); assay type: cell-based, human; conditions: Homo sapiens, PBMC; for inhibition at 0.1 µM: compound concentration 0.1 μM
Protocol: FIGS. 5 and 9A are graphs showing IL-1-beta expression in LPS stimulated peripheral blood mononuclear cells (PBMCs), PBMCs were plated in 96-well plates and pretreated with compound (Compound 1-9 individually) for 1 h, and then induced with 100 ng/mL LPS for 18-24 h. Cytokines in the media were measured according to MesoScale protocol. Negative control wells were treated with DMSO. Compound activity is measured as a percentage of LPS-induced activity. “Rev” is lenalidomide.
(§1) Frozen primary blood mononuclear cells (PBMCs) and frozen CD14+ mobilized peripheral blood monocytes were purchased from AllCells. Cells were quick thawed, and washed 1-time with RPMI-1640/10% FBS/1% Penicillin/1% Streptomycin and plated in 96-well plates at 200,000 cells per well. Cells were pretreated with DMSO only, Compound 5013 (lenolidamide) or the indicated compound for 1 h and then induced with 100 ng/mL lipopolysaccharide (LPS) for 18-24 h. The supernatant was analyzed for IL-1 beta, IL-6, and TNF-α using Meso Scale assay according to manufacturer's protocol. The negative control wells were treated with DMSO.
(§2) PBMCs: AllCells PB003F, Normal Peripheral Blood MNC.
(§3) Media: RPMI 1640/10% FBS/1% Pen-Strep.

Molm-13 cells = experiment: Molm-13 cell viability (CellTiter-Glo); assay type: cell-based; conditions: Homo sapiens, MOLM-13, read-out: % Inhibition (MOLM-13 Cell Viability); for cytotoxicity at 0.1 µM: compound concentration 0.1 μM
Protocol: (§4) FIG. 10A is a graph showing antiproliferative activity in H1048 (SCLC) cells. FIG. 10B is a graph showing antiproliferative activity in Molm-13 (AML) cells. In FIGS. 10A and 10B, the cells were incubated for 72 hrs with Compound 9 at the indicated concentrations or DMSO. Compound activity was measured based on the signal from remaining viable cells.
(§5) Molm-13 cells were cultivated in RPMI-1640 (10% FBS/1% pen-strep) and were plated in white walled 96-well plates at 20,000 cells/well. H1048 cells were cultured in DMEM:F12 media supplemented with 5% fetal bovine serum, insulin, transferrin, sodium selenite, hydrocortisone, β-estradiol, penicillin and streptomycin, and were plated in white walled 96-well plates at 20,000 cells/well. MDA-MB-231 cells were cultured in DMEM media supplemented with 10% fetal bovine serum, penicillin and streptomycin, and were plated in white walled 96-well plates at 10,000 cells/well. Cells were treated with compound or DMSO (0.1%, control) and the cultures were incubated for 3 days at 37° C. and 5% CO2. Following the incubation period, 100 μL of CellTiterGlow (CTG) reagent (CellTiter-Glo® Luminescent Cell Viability Assay, Promega (Madison, Wis.)) was added to each well. Following a 10 min incubation with shaking, luminescence was measured using a Victor Wallac Luminometer.

MDA-MB-231 cells = experiment: MDA-MB-231 cell viability (CellTiter-Glo); assay type: cell-based; conditions: Homo sapiens, 72 h, 3 days, DMSO = 100.00; for viability at 1 µM: 1 μM compound concentration; for viability at 10 µM: 10 μM compound concentration
Protocol: as §5

TNF-α = TNF-α expression in LPS stimulated PBMCs (Meso Scale); assay type: cell-based, human; conditions: Homo sapiens, PBMC; for inhibition at 0.1 µM: compound concentration 0.1 μM
Protocol: FIGS. 7 and 9C are graphs showing TNF-a expression in LPS stimulated peripheral blood mononuclear cells (PBMCs). PBMCs were plated in 96-well plates and pretreated with compound (Compound 1-9 individually) for 1 h, and then induced with 100 ng/mL LPS for 18-24 h. Cytokines in the media were measured according to MesoScale protocol. The negative control wells were treated with DMSO. Compound activity is measured as a percentage of LPS-induced activity. “Rev” is lenalidomide.
as §1, §2, §3

IL-6 = IL-6 expression in LPS stimulated PBMCs (Meso Scale); assay type: cell-based, human; conditions: Homo sapiens, PBMC, LPS-stimulated PBMCs; for inhibition at 0.1 µM: compound concentration 0.1 μM
Protocol: FIGS. 6 and 9B are graphs showing IL-6 expression in LPS stimulated peripheral blood mononuclear cells (PBMCs). PBMCs were plated in 96-well plates and pretreated with compound (Compound 1-9 individually) for 1 h, and then induced with 100 ng/mL LPS for 18-24 h. Cytokines were measured according to MesoScale protocol. Negative control wells were treated with DMSO. Compound activity was measured as a percentage of LPS-induced activity. “Rev” is lenalidomide.
as §1, §2, §3

H1048 cells = experiment: H1048 cell viability (CellTiter-Glo); assay type: cell-based; conditions: Homo sapiens, NCI-H1048, 72 h, H1048, 3 days, DMSO = 100.00; for viability at 1 µM: 1 μM compound concentration; for viability at 10 µM: 10 μM compound concentration
Protocol: as §4, §5

T1 sequence (P15170 whole entry): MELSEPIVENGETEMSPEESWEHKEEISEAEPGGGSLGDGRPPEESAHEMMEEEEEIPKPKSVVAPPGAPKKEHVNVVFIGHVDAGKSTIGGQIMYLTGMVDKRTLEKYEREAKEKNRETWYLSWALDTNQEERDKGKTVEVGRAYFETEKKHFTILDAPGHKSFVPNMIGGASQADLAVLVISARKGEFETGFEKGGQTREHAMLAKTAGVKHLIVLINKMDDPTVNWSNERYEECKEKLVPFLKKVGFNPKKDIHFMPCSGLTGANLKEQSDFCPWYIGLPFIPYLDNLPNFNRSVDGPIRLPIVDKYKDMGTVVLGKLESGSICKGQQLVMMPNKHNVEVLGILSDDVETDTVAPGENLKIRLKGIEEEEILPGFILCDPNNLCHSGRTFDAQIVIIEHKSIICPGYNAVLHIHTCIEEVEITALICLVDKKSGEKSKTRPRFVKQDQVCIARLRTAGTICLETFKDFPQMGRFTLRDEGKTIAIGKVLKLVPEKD
T1 sequence (Q96SW2 whole entry, further chain): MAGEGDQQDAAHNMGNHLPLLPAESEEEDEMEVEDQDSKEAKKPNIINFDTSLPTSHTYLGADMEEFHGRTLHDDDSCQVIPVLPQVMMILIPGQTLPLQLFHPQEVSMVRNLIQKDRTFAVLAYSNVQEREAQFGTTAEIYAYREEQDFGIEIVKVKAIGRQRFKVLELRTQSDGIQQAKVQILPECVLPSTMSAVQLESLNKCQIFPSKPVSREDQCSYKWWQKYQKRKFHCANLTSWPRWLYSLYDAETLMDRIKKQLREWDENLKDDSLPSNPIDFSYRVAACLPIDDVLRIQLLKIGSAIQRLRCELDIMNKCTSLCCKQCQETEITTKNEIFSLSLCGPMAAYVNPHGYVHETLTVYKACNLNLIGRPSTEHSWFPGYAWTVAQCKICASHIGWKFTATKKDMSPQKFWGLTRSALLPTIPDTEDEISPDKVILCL
T1 sequence (Q16531 whole entry partner): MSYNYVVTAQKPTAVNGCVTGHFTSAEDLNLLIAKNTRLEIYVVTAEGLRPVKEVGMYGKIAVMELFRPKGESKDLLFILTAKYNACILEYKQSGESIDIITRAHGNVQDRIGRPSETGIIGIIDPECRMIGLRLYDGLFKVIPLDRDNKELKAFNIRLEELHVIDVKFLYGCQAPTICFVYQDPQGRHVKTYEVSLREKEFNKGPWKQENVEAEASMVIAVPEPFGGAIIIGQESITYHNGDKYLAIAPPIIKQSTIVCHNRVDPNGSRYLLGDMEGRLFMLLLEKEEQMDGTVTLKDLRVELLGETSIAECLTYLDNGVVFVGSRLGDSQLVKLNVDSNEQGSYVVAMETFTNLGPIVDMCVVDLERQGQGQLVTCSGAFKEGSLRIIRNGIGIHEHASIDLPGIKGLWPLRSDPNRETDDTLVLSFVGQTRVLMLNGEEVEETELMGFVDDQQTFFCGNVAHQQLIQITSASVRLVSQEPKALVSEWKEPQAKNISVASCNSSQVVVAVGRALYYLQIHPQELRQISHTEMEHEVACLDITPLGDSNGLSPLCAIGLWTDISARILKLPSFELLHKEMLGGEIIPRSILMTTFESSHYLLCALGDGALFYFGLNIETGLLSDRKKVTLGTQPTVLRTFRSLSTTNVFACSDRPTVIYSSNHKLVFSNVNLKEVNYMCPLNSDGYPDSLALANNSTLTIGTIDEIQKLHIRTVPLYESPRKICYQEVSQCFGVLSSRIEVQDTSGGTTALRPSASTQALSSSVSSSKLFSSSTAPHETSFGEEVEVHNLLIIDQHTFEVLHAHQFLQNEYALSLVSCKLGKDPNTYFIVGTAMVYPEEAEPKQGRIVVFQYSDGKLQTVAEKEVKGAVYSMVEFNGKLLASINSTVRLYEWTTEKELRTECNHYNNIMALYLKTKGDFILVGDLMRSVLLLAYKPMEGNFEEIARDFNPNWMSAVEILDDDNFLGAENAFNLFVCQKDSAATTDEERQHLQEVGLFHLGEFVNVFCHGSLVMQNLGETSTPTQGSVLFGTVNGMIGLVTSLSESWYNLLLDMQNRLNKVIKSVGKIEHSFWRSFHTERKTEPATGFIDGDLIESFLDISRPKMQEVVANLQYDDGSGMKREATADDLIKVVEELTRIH

Structure (SMILES)	remaining activity at 0.1 µM (GSPT1)	remaining activity at 1 µM (GSPT1)	inhibition at 0.1 µM (IL-1β)	cytotoxicity at 0.1 µM (Molm-13 cells)	viability at 1 µM (MDA-MB-231 cells)	viability at 10 µM (MDA-MB-231 cells)	inhibition at 0.1 µM (TNF-α)	inhibition at 0.1 µM (IL-6)	viability at 1 µM (H1048 cells)	viability at 10 µM (H1048 cells)	inhibition at 1 µM (IL-1β; compound concentration 1 μM)	cytotoxicity at 1 µM (Molm-13 cells; compound concentration 1 μM)	inhibition at 1 µM (TNF-α; compound concentration 1 μM)	inhibition at 1 µM (IL-6; compound concentration 1 μM)
Cc1c(Cl)cc(NC(=O)NCc2scc3c2CN(C2CCC(=O)NC2=O)C3=O)cc1C(C)C (centres unmarked) [Compound 48, 1-(3-Chloro-5-isopropyl-4-methylphenyl)-3-((5-(2,6-dioxopiperidin-3-yl)-4-oxo-5,6-dihydro-4H-thieno[3,4-c]pyrrol-1-yl)methyl)urea]	1.46%	3.85%	96%	100%	22.2%	21.7%	92%	100%	9.03%	6.89%				
Cc1cc(C)c(NC(=O)NCc2scc3c2CN(C2CCC(=O)NC2=O)C3=O)cc1Cl (centres unmarked) [Compound 49, 1-(5-Chloro-2,4-dimethylphenyl)-3-((5-(2,6-dioxopiperidin-3-yl)-4-oxo-5,6-dihydro-4H-thieno[3,4-c]pyrrol-1-yl)methyl)urea]	11.9%	20%	61%	100%	24.3%	19.7%	62%	87%	7.67%	6.1%				
Cc1ccc(NC(=S)NCc2scc3c2CN(C2CCC(=O)NC2=O)C3=O)cc1Cl (centres unmarked) [Compound 52, 1-(3-Chloro-4-methylphenyl)-3-((5-(2,6-dioxopiperidin-3-yl)-4-oxo-5,6-dihydro-4H-thieno[3,4-c]pyrrol-1-yl)methyl)thiourea]	0.58%	1.05%	98%	99%	22.4%	20.5%	95%	100%	9.22%	10.3%				
Cc1ccc(NC(=O)NCc2scc3c2CN([C@H]2CCCC(=O)NC2=O)C3=O)nc1Cl [Compound 57, (S)-1-(6-Chloro-5-methylpyridin-2-yl)-3-((5-(2,7-dioxoazepan-3-yl)-4-oxo-5,6-dihydro-4H-thieno[3,4-c]pyrrol-1-yl)methyl)urea]	265%	28.4%			107%	52%			12.4%	8.7%	42%	45%	44%	32%

More lines, main results first:

remaining activity at 0.1 µM (GSPT1)	remaining activity at 1 µM (GSPT1)	Structure (SMILES)	inhibition at 0.1 µM (IL-1β)	cytotoxicity at 0.1 µM (Molm-13 cells)	viability at 1 µM (MDA-MB-231 cells)	viability at 10 µM (MDA-MB-231 cells)	inhibition at 0.1 µM (TNF-α)	inhibition at 0.1 µM (IL-6)	viability at 1 µM (H1048 cells)	viability at 10 µM (H1048 cells)	inhibition at 1 µM (IL-1β; compound concentration 1 μM)	cytotoxicity at 1 µM (Molm-13 cells; compound concentration 1 μM)	inhibition at 1 µM (TNF-α; compound concentration 1 μM)	inhibition at 1 µM (IL-6; compound concentration 1 μM)
0.64%	2.61%	Cc1ccc(NC(=O)NCc2scc3c2CN(C2CCC(=O)NC2=O)C3=O)cc1C(C)C (centres unmarked) [Compound 47, 1-((5-(2,6-Dioxopiperidin-3-yl)-4-oxo-5,6-dihydro-4H-thieno[3,4-c]pyrrol-1-yl)methyl)-3-(3-isopropyl-4-methylphenyl)urea]	99%	100%	21.8%	19.3%	97%	100%	8.91%	8.58%				
23.5%	6.18%	Cc1ccc(NC(=O)NCc2scc3c2CN(C2CCC(=O)NC2=O)C3=O)cn1 (centres unmarked) [Compound 53, 1-((5-(2,6-Dioxopiperidin-3-yl)-4-oxo-5,6-dihydro-4H-thieno[3,4-c]pyrrol-1-yl)methyl)-3-(6-methylpyridin-3-yl)urea]	60%	100%	27.6%	21.3%	65%	90%	8.51%	8.09%				
2.25%	2.72%	Cc1ccc(NC(=O)NCc2scc3c2CN(C2CCC(=O)NC2=O)C3=O)cc1C(F)(F)F (centres unmarked) [Compound 54, 1-((5-(2,6-Dioxopiperidin-3-yl)-4-oxo-5,6-dihydro-4H-thieno[3,4-c]pyrrol-1-yl)methyl)-3-(4-methyl-3-(trifluoromethyl)phenyl)urea]	96%	100%	22.6%	22.4%	93%	100%	8.11%	6.12%				
1.51%	2.86%	O=C1CCC(N2Cc3c(csc3CNC(=O)Nc3ccc(C(F)(F)F)c(Cl)c3)C2=O)C(=O)N1 (centres unmarked) [Compound 55, 1-(3-chloro-4-(trifluoromethyl)phenyl)-3-((5-(2,6-dioxopiperidin-3-yl)-4-oxo-5,6-dihydro-4H-thieno[3,4-c]pyrrol-1-yl)methyl)urea]	99%	100%	20.2%	19%	96%	100%	7.63%	7.94%				
